Measurements reported in patent publication US8119689B2, “Adjuvants on the basis of bisacyloxypropylcystene conjugates and derivatives and their uses in pharmaceutical compositions” (Helmholtz-Zentrum Fuer Infektionsforschung GmbH, priority 2005, dated 2012).
Entries after “also recorded” stand apart in the source; their conditions may differ.

Assays:
spleen cells = experiment: Cytokines secreted by in vitro re-stimulated spleen cells of immunized mice (cytometric bead array); format: in vivo
Protocol: Cytokines secreted by in vitro re-stimulated spleen cells were determined in immunized mice by CBA. Results are expressed as cytokine concentration ratios (IL-10 the most prominent detected cytokine) (B) and (D) and the stimulation index (A) and (C).
Cytometric Bead Array: Culture supernatants from proliferating cells were collected on days 2 and 4, and stored at −70° C. Determinations of IFN-γ, TNFα, IL-2, IL-4, IL-5, IL-6, IL-10 and IL-12 were performed by cytometric bead array analysis using the commercial kit from BD, according to the manufacturer's instructions. A standard curve was generated for each cytokine by using the corresponding recombinant murine cytokines (Pharmingen). Probes were incubated at room temperature for additional 2 h. The probes were then analyzed by flow cytometry as described by the protocol of BD.
To characterize the type of Th response stimulated following immunization, the content of IFN-γ, IL-2, IL-4, IL-5, IL-6, IL-10, IL-12 and TNFα was measured in supernatants from in vitro re-stimulated spleen cells (FIG. 7). […] In fact, the strong stimulation of IL-10 secretion is congruent with the role played by this cytokine in the inhibition of cytokine synthesis by Th1 cells, the enhancement of B cells proliferation and the stimulation of IgA production.

[1] = test system: β-gal antigen-specific IgG isotypes; experiment: β-gal-specific IgG isotypes in sera of immunized mice (isotype ELISA); format: in vivo
Protocol: FIG. 8: FIG. 8 provides the analysis of beta-Gal specific IgG isotypes in sera of immunized mice. Anti-beta-Gal specific IgG isotypes of the groups immunized with PBS, (control) beta-Gal+either BPPcysGlyc4armPEG or BPPcysPEG (FIG. 8A) or BPPcysAda or Ada alone (FIG. 8B), or beta-Gal alone of mice immunized by the i.n. or s.c. route were determined by ELISA. Results are expressed as end point titers. IgG titers represent the mean of five animals per experimental group. Differences were statistically significant at p<0.05 (*) with respect to mice receiving antigen alone. One representative out of four independent experiments is shown. SEM is indicated by vertical lines.
Isotyp ELISA: 96-well Nunc-Immuno MaxiSorp assay plates (Nunc, Roskilde, Denmark) were coated with 100 μl of β-gal (Boehringer, Mannheim, Germany) at 5 μg/ml in 0.05 M carbonate buffer (pH 8.2) per well. Serial two-fold dilutions of sera or lavages in PBS with 1% BSA and 0.05% Tween 20 were added (100 μl/well), and plates incubated for 2 h at 37° C. After washing, biotin-conjugated rat anti-mouse IgG1 or IgG2a (Pharmingen, Hamburg, Germany) were added to determine IgG subclasses. Plates were incubated for an additional 1 h at 37° C. After four washes, 100 μl of peroxidase-conjugated streptavidin (Pharmingen) was added to cells and plates incubated at 37° C. for 30 min. After four washes, reactions were developed with ABTS in 0.1 M citrate-phosphate buffer (pH 4.35) containing 0.01% H2O2. To determine the concentration of IgG subclasses in serum, standard curves were obtained by coating the wells with an isotype-specific goat anti-mouse IgG, and then by incubating with purified mouse IgG1 or IgG2a antibodies (Dianova, Hamburg, Germany).

CD8+ T cells = experiment: IFNγ-producing CD8+ T cells after stimulating splenocytes with MHC cl. I restricted β-Gal or OVA peptides; format: in vivo; conditions: vs β-Gal or OVA alone-treated groups; intranasal, subcutaneous or intramuscular route (not shown)
Protocol: To assess the epitope-specific cellular immune response induced by the co-administration of BPPCysAda via intranasal, subcutaneous or intramuscular route, IFNγ-producing CD8+ T cells were analyzed after stimulating splenocytes with the MHC cl. I restricted β-Gal (TPHPARIGL) or OVA ([…]) peptides.

β-gal-specific IgA = experiment: β-gal-specific secretory IgA in lung and vaginal lavages of i.n. immunized mice; format: in vivo, BALB/c mice; conditions: i.n. immunization
Protocol: Differences were statistically significant at p<0.05 (*) with respect to mice receiving antigen alone. One representative out of four independent experiments is shown. SEM is indicated by vertical lines.
At day 38, mice were sacrificed and the final sampling was performed. Vaginal and lung ravages were obtained by flushing the organs with 1 ml of PBS supplemented with 50 mM EDTA, 0.1% BSA, and 10 mM PMSF. Lavages were then centrifuged to remove debris (10 min at 3000×g), and supernatant fluids were stored at −20° C. To determine the concentration of total IgA present in the lung and vaginal ravages, serial dilutions of the corresponding samples were incubated in microtiter plates that were previously coated with goat anti-mouse IgA (Sigma Chemie), as capture antibodies (100 μl/well). Serial dilutions of purified mouse IgA (Sigma Chemie) were used to generate a standard curve.

[2] = supernatants of in vitro re-stimulated spleen cells

SMILES: CCCCCCCCCCCCCCCC(=O)OCC(CSC[C@H](N)C(=O)N[C@H]1[C@@H](O)[C@H](n2cnc3c(N)ncnc32)O[C@@H]1CO)OC(=O)CCCCCCCCCCCCCCC (single isomer, unassigned) [BPPcysAda, S-[2,3-bis(palmitoyloxy)-(2S or 2R)-propyl]-L-cysteinylcarboxy-3′Amino-3′-deoxyadenosine]
- IL-4 levels (spleen cells; all BPPcysAda co-administered groups, intranasal): induced
- type of immune response induced (spleen cells; mucosal and parenteral co-administration): Th2 dominated immune response
- IFNγ secretion (spleen cells; [2]): weaker increase; also recorded: minor secretion
- IL-2 secretion (spleen cells; [2]): induced; also recorded: weaker increase; also recorded: minor secretion
- IL-6 secretion (spleen cells; [2]): weaker increase
- IL-10 levels (spleen cells; [2]): significantly increased
- TNFα secretion (spleen cells; [2]): weaker increase
- antigen specific antibodies of the IgG1 subtype, intranasal ([1]; intranasal administration): significantly enhances; also recorded: strongly increased
- antigen specific antibodies of the IgG2a isotype, intranasal ([1]; intranasal administration): significantly enhances; also recorded: strongly increased
- expression of the IgG1 isotype, subcutaneous ([1]; subcutaneous administration): strongly increased
- expression of the IgG2a isotype, subcutaneous ([1]; subcutaneous administration): strongly increased
- number of IFNγ-secreting CD8+ T cells (CD8+ T cells): significantly decreased
- β-gal-specific IgA in vaginal lavages (β-gal-specific IgA; day 38): significantly higher levels
- β-gal-specific IgA in lung lavages (BAL) (β-gal-specific IgA; day 38, vs antigen alone): significantly higher levels
